Test results from patent publication US11926627B1 (priority 2023, dated 2024).
Converted amounts (≈) assume the structure as drawn.

test system: multidrug-resistant (MDR) strains of Mycobacterium tuberculosis; test: microbe, parasite or virus in culture; type: cell-based; conditions: 192 h, read-out: Antitubercular activity against Mycobacterium tuberculosis MDR (MIC)

Structure (SMILES)	MIC [µg/mL]
COC(=O)c1c(C(=O)OC)c2ccc3cc(C)ccc3n2c1C(=O)c1ccc(F)cc1 [7-METHYL-QUIN1, Dimethyl 1-(4-fluorobenzoyl)-7-methylpyrrolo[1,2-α]quinoline-2,3-dicarboxylate]	8 (≈ 19.1 µM)
COC(=O)c1c(C(=O)OC)c2ccc3cc(C)ccc3n2c1C(=O)c1ccc(Br)cc1 [7-METHYL-QUIN2, Dimethyl 1-(4-bromobenzoyl)-7-methylpyrrolo[1,2-α]quinoline-2,3-dicarboxylate]	16 (≈ 33.3 µM)
CCOC(=O)c1cc(C(=O)c2ccc(Cl)cc2)n2c1ccc1cc(C)ccc12 [7-METHYL-QUIN3, Ethyl 1-(4-chlorobenzoyl)-7-methylpyrrolo[1,2-α]quinoline-3-carboxylate]	4 (≈ 10.2 µM)
COC(=O)c1c(C(=O)OC)c2ccc3cc(C)ccc3n2c1C(=O)c1ccc(Cl)cc1 [7-METHYL-QUIN4, Dimethyl 1-(4-chlorobenzoyl)-7-methylpyrrolo[1,2-α]quinoline-2,3-dicarboxylate]	4 (≈ 9.18 µM)
